pIC50: −log10 of the molar value. The source made the active and inactive calls.
Tests used:
[1] = molecular target: T1, CAAX prenyl protease 2 (Saccharomyces cerevisiae S288c, UniProt Q03530); format: biochemical
T1 sequence (Q03530 whole entry): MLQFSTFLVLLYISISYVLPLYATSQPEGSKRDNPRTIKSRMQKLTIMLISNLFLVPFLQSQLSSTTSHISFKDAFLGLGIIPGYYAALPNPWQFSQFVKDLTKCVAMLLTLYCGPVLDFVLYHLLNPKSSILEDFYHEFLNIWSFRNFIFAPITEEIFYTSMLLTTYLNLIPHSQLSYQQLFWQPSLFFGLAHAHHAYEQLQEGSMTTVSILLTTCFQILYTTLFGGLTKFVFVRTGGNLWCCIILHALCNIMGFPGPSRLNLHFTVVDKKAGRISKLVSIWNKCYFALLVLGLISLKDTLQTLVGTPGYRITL

[2] = molecular target: FAD-linked sulfhydryl oxidase ALR (Homo sapiens, UniProt P55789); assay: ALR-catalysed DTT oxidation blockers – biochemical, H2O2 detection, luminescence, cherry-pick, dose response (AID 493248)
Sequence of FAD-linked sulfhydryl oxidase ALR (P55789 whole entry): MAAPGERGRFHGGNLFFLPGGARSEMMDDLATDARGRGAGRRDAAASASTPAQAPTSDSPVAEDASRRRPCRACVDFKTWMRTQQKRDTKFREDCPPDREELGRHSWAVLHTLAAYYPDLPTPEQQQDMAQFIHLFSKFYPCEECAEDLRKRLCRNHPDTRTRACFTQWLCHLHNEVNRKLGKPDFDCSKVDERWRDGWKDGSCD

[3] = molecular target: DNA dC->dU-editing enzyme APOBEC-3A (Homo sapiens, UniProt P31941); assay: A3A deaminase inhibition for selectivity – biochemical, dose response (AID 504722); format: functional
Sequence of DNA dC->dU-editing enzyme APOBEC-3A (P31941 whole entry): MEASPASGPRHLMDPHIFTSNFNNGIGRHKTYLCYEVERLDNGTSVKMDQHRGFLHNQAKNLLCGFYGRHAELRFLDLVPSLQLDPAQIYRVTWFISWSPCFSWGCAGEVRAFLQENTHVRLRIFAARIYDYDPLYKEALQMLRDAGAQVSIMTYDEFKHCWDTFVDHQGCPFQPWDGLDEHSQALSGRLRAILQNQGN

[4] = molecular target: DNA dC->dU-editing enzyme APOBEC-3G (Homo sapiens, UniProt Q9HC16); assay: Dose Response confirmation of small molecule APOBEC3G DNA Deaminase Inhibitors via a fluorescence-based single-stranded DNA deaminase assay. [Related pubchem assays (depositor defined):AID493012, AID493028]; format: functional
[5] = molecular target: T2, Rac GTPase-activating protein 1 (Homo sapiens, UniProt Q9H0H5); assay: blockers of MgcRacGAP-driven Rac1 GTP hydrolysis – biochemical, ADP Hunter fluorescence, primary and confirmatory, confirmation (AID 624330); format: functional
T2 sequence (Q9H0H5 whole entry): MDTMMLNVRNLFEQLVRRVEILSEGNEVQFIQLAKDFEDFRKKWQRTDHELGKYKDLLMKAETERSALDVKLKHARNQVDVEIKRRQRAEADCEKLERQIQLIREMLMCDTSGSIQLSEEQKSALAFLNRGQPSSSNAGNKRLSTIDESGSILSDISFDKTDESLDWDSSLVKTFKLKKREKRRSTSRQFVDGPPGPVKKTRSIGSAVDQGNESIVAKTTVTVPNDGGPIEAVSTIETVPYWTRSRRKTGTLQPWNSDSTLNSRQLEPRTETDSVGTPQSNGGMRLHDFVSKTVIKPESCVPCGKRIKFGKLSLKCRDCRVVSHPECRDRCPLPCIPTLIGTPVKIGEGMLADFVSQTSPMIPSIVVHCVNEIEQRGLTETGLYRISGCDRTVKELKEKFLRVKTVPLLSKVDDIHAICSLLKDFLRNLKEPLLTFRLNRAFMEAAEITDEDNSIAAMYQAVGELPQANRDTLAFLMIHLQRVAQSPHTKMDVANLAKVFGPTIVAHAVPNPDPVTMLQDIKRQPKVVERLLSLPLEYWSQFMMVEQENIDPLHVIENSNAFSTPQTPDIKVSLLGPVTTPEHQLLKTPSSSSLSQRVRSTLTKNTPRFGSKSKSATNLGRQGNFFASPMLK

[6] = molecular target: Eukaryotic translation initiation factor 4E (Mus musculus, UniProt P63073); assay: blockers of eIF4G binding by eIF4E – biochemical, TR-FRET, dose response (AID 855); format: functional;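 also: potency for disrupting eIF4E binding to eIF4GI seen as loss of FRET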
Sequence of Eukaryotic translation initiation factor 4E (P63073 whole entry): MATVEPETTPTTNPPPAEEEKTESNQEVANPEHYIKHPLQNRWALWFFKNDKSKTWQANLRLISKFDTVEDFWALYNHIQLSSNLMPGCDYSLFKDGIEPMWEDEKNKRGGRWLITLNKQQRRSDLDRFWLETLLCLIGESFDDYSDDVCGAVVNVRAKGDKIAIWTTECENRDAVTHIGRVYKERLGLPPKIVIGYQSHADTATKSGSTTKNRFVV

[7] = molecular target: DNA damage-inducible transcript 3 protein (Mus musculus, UniProt P35639); format: functional, Cricetulus griseus
Sequence of DNA damage-inducible transcript 3 protein (P35639 whole entry): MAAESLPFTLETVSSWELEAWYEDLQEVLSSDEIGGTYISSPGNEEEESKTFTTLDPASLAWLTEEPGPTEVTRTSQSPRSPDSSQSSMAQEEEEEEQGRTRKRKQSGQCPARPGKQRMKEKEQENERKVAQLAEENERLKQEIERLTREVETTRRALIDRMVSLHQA

[8] = molecular target: T3, Heat shock factor protein 1 (Mus musculus, UniProt P38532); assay: enhancement of HSF1-driven luciferase signal – cell-based, NIH3T3, luminescence, dose retest, confirmation (AID 435004); format: functional;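 also: stress induced by proteasome inhibitor MG132 added 30 min after compound; luciferase reporter driven by HSF1 response element in NIH3T3 cells; actives raise luminescence as potentiators of the MG132 stress response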
T3 sequence (P38532 whole entry): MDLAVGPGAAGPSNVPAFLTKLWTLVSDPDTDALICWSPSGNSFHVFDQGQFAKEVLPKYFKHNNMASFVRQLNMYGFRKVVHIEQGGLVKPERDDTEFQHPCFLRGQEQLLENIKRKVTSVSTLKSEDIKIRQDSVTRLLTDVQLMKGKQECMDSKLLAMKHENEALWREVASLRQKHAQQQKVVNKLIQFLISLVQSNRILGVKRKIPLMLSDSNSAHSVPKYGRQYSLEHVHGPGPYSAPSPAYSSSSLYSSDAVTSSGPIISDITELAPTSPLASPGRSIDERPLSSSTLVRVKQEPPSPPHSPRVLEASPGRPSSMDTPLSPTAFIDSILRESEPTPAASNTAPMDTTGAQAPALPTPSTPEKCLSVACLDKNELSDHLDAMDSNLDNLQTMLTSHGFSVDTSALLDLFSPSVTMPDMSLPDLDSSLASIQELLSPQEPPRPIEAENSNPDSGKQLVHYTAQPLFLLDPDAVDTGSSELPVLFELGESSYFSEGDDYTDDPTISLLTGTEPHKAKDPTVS

[9] = loss of viability in HepG2 cells – cell-based, CellTiter-Glo, cherry-picked, cytotoxicity control for Shn3 inhibitor project, dose response (AID 624134); format: functional
[10] = reduction of Shn3 3'UTR-driven luciferase in osteoblasts – cell-based, Clone20 osteoblasts, firefly luciferase, cherry-picked, dose response (AID 624132); format: functional;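 also: firefly luciferase luminescence from reporter carrying the Shn3 3'UTR in osteoblasts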
[11] = molecular target: T4, Kappa-type opioid receptor (Homo sapiens, UniProt P41145); format: functional
T4 sequence (P41145 whole entry): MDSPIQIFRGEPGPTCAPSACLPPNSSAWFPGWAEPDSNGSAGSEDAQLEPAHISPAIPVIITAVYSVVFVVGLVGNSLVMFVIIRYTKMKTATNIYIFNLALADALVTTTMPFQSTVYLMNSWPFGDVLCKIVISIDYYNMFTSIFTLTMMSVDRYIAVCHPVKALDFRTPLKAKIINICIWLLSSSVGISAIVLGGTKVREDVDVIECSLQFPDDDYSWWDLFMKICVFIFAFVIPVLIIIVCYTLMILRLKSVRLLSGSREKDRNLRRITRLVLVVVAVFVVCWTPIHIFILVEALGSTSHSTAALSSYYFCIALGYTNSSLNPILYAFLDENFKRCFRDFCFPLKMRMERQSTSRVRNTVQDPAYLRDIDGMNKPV

[12] = molecular target: T5, Delta-type opioid receptor (Homo sapiens, UniProt P41143); assay: HTS Image-Based Screen for Antagonists of the DOR Receptor. [Related pubchem assays (depositor defined):AID1777, AID1785, AID1786, AID2133]; format: functional
T5 sequence (P41143 whole entry): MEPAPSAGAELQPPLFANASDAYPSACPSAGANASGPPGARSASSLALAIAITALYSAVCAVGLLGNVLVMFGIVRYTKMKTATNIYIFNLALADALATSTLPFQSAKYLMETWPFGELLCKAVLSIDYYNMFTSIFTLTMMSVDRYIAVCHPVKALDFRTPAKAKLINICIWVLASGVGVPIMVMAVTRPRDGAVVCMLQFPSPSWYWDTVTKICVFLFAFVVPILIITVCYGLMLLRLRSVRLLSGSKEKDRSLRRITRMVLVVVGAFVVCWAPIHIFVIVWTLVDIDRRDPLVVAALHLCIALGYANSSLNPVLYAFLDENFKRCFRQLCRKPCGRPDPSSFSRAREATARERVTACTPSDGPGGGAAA

[13] = Luminescence Cell-Based Dose Response HTS to Identify Inhibitors of 5'UTR Stem-Loop Driven Prion Protein mRNA Translation in H4 Neuroglioblastoma Cells. [Related pubchem assays: 1827 (Project Summary), 1813 (Primary HTS)]; format: functional
[14] = system: HEK293; assay: cells; format: functional, cell-based; details: Homo sapiens
[15] = system: HEK293; assay: NOD2 signaling inhibitors in MDP-stimulated cells, cell-based, uHTS, luminescence (AID 2001); format: functional; details: Homo sapiens
[16] = system: HEK293; assay: cells; format: functional, cell-based; details: Homo sapiens; remark: listed apart in the source
[17] = molecular target: Paired box protein Pax-8 (Homo sapiens, UniProt Q06710); assay: PAX8 transcriptional activity inhibition in RMG-I – RMG-I cells, luciferase, cherry-pick, dose response (AID 687027); format: functional, cell-based;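 also: luciferase reporter driven by Pax8 target thyroperoxidase promoter measured by SteadyGlo luminescence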
Sequence of Paired box protein Pax-8 (Q06710 whole entry): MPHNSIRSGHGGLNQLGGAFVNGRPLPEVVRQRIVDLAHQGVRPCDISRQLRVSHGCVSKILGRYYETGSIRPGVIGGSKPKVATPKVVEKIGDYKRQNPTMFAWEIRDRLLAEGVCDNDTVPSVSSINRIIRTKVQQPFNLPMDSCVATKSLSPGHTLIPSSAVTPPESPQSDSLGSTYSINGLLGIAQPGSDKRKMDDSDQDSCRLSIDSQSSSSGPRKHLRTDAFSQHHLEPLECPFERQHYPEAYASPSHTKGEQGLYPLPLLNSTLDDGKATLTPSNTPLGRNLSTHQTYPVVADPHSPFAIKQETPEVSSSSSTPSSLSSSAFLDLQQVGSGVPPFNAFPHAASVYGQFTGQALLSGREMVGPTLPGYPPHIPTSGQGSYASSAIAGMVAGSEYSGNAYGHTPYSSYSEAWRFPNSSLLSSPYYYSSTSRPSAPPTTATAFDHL

[18] = DRD fibroblast viability loss – cell-based, non-viral oncogenic, luminescence, dose response (AID 1934); format: functional; details: Homo sapiens
[19] = system: BJ; assay: BJ-TERT-LT-ST fibroblast viability loss – cell-based, RAS-independent, luminescence, dose response (AID 1935); format: functional; details: Homo sapiens;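 also: BJ fibroblasts immortalized with TERT plus LT and ST oncogenes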
[20] = molecular target: T4, Kappa-type opioid receptor; format: functional; remark: listed apart in the source
[21] = molecular target: Mu-type opioid receptor (Homo sapiens, UniProt P35372); assay: HTS Image-Based Screen for Agonists of the MOR Receptor. [Related pubchem assays (depositor defined):AID1777, AID1785, AID1786, AID2133]; format: functional;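 also: imaging of beta-arrestin GFP recruitment into spots after receptor activation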
Sequence of Mu-type opioid receptor (P35372 whole entry): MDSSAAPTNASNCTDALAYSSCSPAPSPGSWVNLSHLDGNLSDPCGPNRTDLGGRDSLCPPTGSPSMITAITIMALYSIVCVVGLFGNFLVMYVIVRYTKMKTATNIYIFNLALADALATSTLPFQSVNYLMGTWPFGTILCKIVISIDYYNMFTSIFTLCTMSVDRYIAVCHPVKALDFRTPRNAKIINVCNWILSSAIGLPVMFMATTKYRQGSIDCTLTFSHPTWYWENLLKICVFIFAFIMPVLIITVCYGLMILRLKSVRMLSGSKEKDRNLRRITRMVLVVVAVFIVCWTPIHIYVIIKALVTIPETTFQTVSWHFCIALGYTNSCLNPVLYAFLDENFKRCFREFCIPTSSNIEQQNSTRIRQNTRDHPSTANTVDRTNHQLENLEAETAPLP

[22] = system: BJ; assay: cells; format: functional, cell-based; details: Homo sapiens
[23] = molecular target: T6, Microphthalmia-associated transcription factor (Homo sapiens, UniProt O75030); assay: reducers of TRPM1 reporter luminescence, concentration series – cell-based, SK-MEL-5, cherry-picked, set 3, MITF inhibitor project, dose response (AID 493073); format: functional;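 also: SK-MEL-5 melanoma cells with luciferase driven by the MITF target TRPM1 promoter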
T6 sequence (O75030 whole entry): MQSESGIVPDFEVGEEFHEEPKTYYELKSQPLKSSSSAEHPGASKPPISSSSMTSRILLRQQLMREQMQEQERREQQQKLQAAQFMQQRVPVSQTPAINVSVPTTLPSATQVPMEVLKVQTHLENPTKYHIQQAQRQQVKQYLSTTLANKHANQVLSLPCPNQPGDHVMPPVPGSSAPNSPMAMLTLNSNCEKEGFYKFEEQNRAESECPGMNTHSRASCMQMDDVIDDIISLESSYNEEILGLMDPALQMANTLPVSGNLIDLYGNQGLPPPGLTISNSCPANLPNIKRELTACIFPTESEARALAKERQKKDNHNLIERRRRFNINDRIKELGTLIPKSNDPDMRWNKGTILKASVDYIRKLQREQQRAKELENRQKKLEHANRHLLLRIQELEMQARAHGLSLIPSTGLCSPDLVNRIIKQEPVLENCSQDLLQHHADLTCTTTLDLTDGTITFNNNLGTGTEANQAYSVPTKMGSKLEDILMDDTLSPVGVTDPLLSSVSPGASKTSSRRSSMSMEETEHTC

[24] = alpha-synuclein stem-loop luciferase translation blockers – H4 neuroglioma cells, luminescence, confirmation (AID 1988); format: functional, cell-based
[25] = Fluorescence-based cell-based high throughput dose response assay for inhibitors of the interaction of nucleotide-binding oligomerization domain containing 2 (NOD2) and the receptor-interacting serine-threonine kinase 2 (RIPK2).; format: functional; details: Homo sapiens
[26] = molecular target: T5, Delta-type opioid receptor; assay: HTS Image-Based Screen for Agonists of the DOR Receptor. [Related pubchem assays (depositor defined):AID1777, AID1786, AID2133]; format: functional
[27] = system: BJ; assay: BJ-TERT fibroblast viability loss – cell-based, RAS-independent, luminescence, dose response (AID 1933); format: functional; details: Homo sapiens
[28] = molecular target: Beta-galactosidase (Escherichia coli, UniProt Q8VNN2); format: functional
Sequence of Beta-galactosidase (Q8VNN2 whole entry): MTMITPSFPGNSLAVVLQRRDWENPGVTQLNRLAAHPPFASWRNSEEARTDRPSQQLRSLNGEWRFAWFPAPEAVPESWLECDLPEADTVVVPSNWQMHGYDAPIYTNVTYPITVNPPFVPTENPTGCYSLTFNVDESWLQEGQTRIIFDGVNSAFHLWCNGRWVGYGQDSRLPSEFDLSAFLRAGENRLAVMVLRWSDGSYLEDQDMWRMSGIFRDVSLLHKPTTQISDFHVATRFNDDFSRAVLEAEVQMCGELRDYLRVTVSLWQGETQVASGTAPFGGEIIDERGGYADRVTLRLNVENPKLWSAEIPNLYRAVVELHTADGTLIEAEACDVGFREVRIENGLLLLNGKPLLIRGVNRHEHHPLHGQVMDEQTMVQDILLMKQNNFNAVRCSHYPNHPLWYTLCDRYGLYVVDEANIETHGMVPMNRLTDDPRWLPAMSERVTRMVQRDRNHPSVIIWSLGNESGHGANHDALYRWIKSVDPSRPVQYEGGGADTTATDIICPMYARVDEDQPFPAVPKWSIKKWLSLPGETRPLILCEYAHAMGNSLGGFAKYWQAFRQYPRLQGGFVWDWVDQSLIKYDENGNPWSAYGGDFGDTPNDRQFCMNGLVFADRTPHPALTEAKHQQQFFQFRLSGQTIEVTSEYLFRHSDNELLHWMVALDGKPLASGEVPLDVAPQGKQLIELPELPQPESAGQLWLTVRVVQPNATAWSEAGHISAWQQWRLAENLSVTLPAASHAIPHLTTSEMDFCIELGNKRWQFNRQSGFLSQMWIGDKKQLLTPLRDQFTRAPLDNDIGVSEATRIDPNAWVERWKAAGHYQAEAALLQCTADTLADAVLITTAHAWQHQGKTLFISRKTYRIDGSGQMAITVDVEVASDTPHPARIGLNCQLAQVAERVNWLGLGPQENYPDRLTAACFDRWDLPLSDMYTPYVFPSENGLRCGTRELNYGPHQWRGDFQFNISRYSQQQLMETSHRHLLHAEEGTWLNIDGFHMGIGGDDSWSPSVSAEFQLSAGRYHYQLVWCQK

[29] = luciferase reporter signal suppression in cells – H4 neuroglioma cells, luminescence, dose response (AID 1990); format: functional, cell-based
[30] = molecular target: Beta Lactamase (Pseudomonas aeruginosa, UniProt Q932Y6); assay: BLA reporter interference, concentration series – BLA reporter cells, FRET fluorescence, artefact control for NOD2-RIPK2 interaction inhibitor project, dose response (AID 651552); format: functional, cell-based
Sequence of Beta Lactamase (Q932Y6 whole entry): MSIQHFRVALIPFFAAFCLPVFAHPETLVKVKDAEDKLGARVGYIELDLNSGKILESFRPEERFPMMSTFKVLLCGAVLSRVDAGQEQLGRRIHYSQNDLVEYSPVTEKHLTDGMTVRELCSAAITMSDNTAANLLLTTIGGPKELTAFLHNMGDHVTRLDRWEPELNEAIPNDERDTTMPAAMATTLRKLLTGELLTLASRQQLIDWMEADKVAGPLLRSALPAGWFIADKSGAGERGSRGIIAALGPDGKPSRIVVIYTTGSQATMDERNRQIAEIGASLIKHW

[31] = non-specific 3'UTR reporter inhibition in Clone20-Shn3RL – cell-based, Renilla luciferase, cherry-picked, counter-screen for Shn3 inhibitor project, dose response (AID 624133); format: functional
[32] = system: HEK293; assay: inhibition of NOD1-driven NF-kB reporter – cell-based, luminescence, uHTS, primary screen (AID 1578); format: functional; details: Homo sapiens
[33] = molecular target: Cytochrome P450 2C9 (Homo sapiens, UniProt P11712)
Sequence of Cytochrome P450 2C9 (P11712 whole entry): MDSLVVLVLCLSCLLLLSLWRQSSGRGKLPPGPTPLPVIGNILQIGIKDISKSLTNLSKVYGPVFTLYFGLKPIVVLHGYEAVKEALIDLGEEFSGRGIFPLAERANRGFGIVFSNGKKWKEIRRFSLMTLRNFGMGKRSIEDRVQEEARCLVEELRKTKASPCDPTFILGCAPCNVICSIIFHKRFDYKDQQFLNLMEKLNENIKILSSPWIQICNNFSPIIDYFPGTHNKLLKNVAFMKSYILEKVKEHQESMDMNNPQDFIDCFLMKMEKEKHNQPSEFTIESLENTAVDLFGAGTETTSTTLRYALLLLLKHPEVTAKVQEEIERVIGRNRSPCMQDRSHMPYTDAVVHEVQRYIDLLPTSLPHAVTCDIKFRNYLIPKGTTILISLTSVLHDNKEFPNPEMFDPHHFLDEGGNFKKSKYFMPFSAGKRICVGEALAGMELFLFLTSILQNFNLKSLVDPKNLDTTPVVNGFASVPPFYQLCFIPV

[34] = molecular target: Cytochrome P450 2D6 (Homo sapiens, UniProt P10635);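 also: CYP2D6 member of a cytochrome P450 panel assay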
[35] = fluconazole-exposed Candida albicans growth modulators – fluorescence, retest, confirmation (AID 2467); format: functional, cell-based
[36] = NIH-3T3 fibroblast cytotoxicity, dose response, cytotoxicity control, cell-based, fluorescence, Alamar Blue, secondary assay (AID 2327); format: functional;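 also: NIH-3T3 mouse fibroblasts cultured with fluconazole at 8 µg/mL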
[37] = molecular target: Cytochrome P450 3A4 (Homo sapiens, UniProt P08684);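 also: CYP3A4 tested as one member of a cytochrome P450 panel screen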
Sequence of Cytochrome P450 3A4 (P08684 whole entry): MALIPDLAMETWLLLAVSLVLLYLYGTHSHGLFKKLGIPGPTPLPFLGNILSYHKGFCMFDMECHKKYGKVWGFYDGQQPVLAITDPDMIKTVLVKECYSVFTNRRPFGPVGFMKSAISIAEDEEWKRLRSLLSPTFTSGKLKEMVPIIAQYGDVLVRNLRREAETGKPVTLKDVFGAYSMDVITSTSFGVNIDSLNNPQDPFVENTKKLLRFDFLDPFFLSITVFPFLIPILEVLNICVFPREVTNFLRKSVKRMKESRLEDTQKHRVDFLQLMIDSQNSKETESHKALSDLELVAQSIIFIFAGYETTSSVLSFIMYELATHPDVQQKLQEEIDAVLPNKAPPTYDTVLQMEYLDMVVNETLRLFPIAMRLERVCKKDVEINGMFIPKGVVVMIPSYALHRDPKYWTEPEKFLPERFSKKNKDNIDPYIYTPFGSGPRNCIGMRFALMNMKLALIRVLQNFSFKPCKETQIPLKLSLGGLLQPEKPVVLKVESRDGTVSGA

Compound: CC1(C)CC2CC(C)(CN2S(=O)(=O)c2ccc(N)cc2)C1 (stereo not drawn)
- AC50 [1]: 93.4 µM (active)

Compound: Sc1nnc(-c2ccncc2)n1/N=C/C=C/c1ccccc1
- AC50 [2]: 8.12 µM (active)
- IC50 [3]: > 100 µM (inactive)
- IC50 [4]: 2.76 µM (active)
- IC50 [5]: 125 µM (active)

Compound: CCn1nnnc1SCC(=O)Nc1cccc(NC(C)=O)c1
- IC50 [6]: > 64 µM (inactive)

Compound: Cc1cccc(C)c1N1CCN(c2ccc3nnc(C(F)(F)F)n3n2)CC1
- Absolute IC50 (CHOP) [7]: 10 µM
- EC50 [8]: 70 µM (active)

Compound: COCCN(CC(=O)NC1CCCCC1)C(=O)/C=C/C(=O)c1ccc(OC)cc1O
- AC50 [9]: 13.7 µM (active)
- AC50 [10]: 2.58 µM (active)
- IC50 [11]: 7.13 µM (active)
- IC50 [12]: > 32 µM (inactive)
- EC50 [13]: 9.57 µM (active)
- IC50 [14]: > 20 µM (inactive)
- IC50 [15]: > 20 µM (inactive)
- IC50 [16]: 16.6 µM (active)
- AC50 [17]: 5.38 µM (active)
- EC50 [18]: 2.74 µM (inconclusive)
- EC50 [19]: 1.62 µM (inconclusive)
- pIC50 [20]: 4.79
- EC50 [21]: > 32 µM (inactive)
- EC50 [22]: 9.79 µM (inconclusive)
- AC50 [23]: 5.48 µM (active)
- EC50 [24]: > 120 µM (not active)
- IC50 [25]: 3.11 µM (active)
- EC50 [26]: > 32 µM (inactive)
- EC50 [27]: 2.71 µM (inconclusive)
- EC50 [28]: > 31.5 µM (inactive)
- EC50 [29]: 8.52 µM (active)
- IC50 [30]: 17.8 µM (inactive)
- AC50 [31]: 9.9 µM (active)
- EC50 [32]: > 20 µM (inactive)

Compound: CC(=O)Nc1ccc(N2CCCCC2)c(C(=O)Nc2cccc(C)c2)c1
- AC50 [33]: 12.6 µM (inconclusive)
- AC50 [34]: 17.8 µM (inconclusive)
- EC50 [35]: > 38 µM (not active)
- IC50 [6]: > 64 µM (inactive)
- EC50 [36]: 50.5 µM (active)
- AC50 [37]: 22.4 µM (inconclusive)

Source: ChEMBL document CHEMBL1201862, “PubChem BioAssay data set” (2004)
